The Deep4Chem optical property database

Test: solvent given as SMILES

In the case of `COc1cc2c(cc1-c1ccc([N+](=O)[O-])cc1)Cc1c3c(c4c(c1-2)-c1cc(OC)c(-c2ccc([N+](=O)[O-])cc2)cc1C4)C(=O)N(CCC(C)C)C3=O`, the fluorescence lifetime (in C1CCOC1) is reported as 1.43 ns.
With `CCCCCCCCCCCCN1C(=O)c2ccc3c4ccc5c6c(ccc(c7ccc(c2c37)C1=O)c64)C(=O)N(CCCCCCCCCCCC)C5=O` the fluorescence lifetime (in CN(C)C=O) was 4.1 ns.
`c1ccc(C2=Nc3cccc4[n+]3[B-](c3ccccc3)(N2)NC(c2ccccc2)=N4)cc1` gave a fluorescence lifetime (in ClCCl) of 2.5 ns.
Compound `CC1=CC(C)=[N+]2C1=Cc1c3ccccc3c(C#Cc3ccccc3)n1[B-]2(F)F` has a fluorescence lifetime (in CCCCCC) of 5.41 ns, a fluorescence lifetime (in CCCCCCCCO) of 5.13 ns and a fluorescence lifetime (in CCOC(C)=O) of 5.3 ns. It also gave a fluorescence lifetime (in CN(C)C=O) of 4.82 ns.
With `c1csc(-c2ccc(-c3ccc(-c4cccs4)s3)s2)c1` the fluorescence lifetime (in CCC(C)C) was 0.52 ns and the fluorescence lifetime (in ClCCl) was 0.44 ns.
`C[Si](C)(C)c1cccc2ccccc12` showed a fluorescence lifetime (in C1CCCCC1) of 64 ns.
Compound `CCCCCCCCC1(CCCCCCCC)c2ccccc2-c2ccc(-c3nnc(-c4ccc(-n5c6ccc(C(C)(C)C)cc6c6cc(C(C)(C)C)ccc65)cc4)o3)cc21` has a fluorescence lifetime (in Cc1ccccc1) of 1.7 ns.
For `O=[N+]([O-])c1ccc(O)c(-c2nc3c(c4c2-c2ccccc2CC4)-c2ccccc2CC3)c1`, the fluorescence lifetime (in ClCCl) was 0.45 ns.
Compound `CN(C)c1ccc(/C=C/c2nc3c4ccccc4c4ccccc4c3[nH]2)cc1` has a fluorescence lifetime (in C1CCOC1) of 0.341 ns, a fluorescence lifetime (in C1COCCO1) of 0.484 ns and a fluorescence lifetime (in CC1CCCCC1) of 0.471 ns. It also gave a fluorescence lifetime (in CC#N) of 0.356 ns, a fluorescence lifetime (in CCOC(C)=O) of 0.325 ns and a fluorescence lifetime (in CCOCC) of 0.391 ns. For the same compound, the fluorescence lifetime (in CN(C)C=O) was 0.37 ns, the fluorescence lifetime (in COC(C)=O) was 0.308 ns and the fluorescence lifetime (in CS(C)=O) was 0.384 ns. It also gave a fluorescence lifetime (in Cc1ccccc1) of 0.306 ns and a fluorescence lifetime (in ClC(Cl)Cl) of 0.138 ns.
`F[B-]1(F)OC(C#Cc2ccccc2)=CC(c2ccccc2)=[O+]1` showed a fluorescence lifetime (in ClCCl) of 0.94 ns.
In the case of `N#Cc1cnc(-c2c3ccccc3cc3ccccc23)nc1`, the fluorescence lifetime (in CCO) is reported as 1.3 ns and the fluorescence lifetime (in ClCCl) is reported as 1.6 ns.
With `Fc1cc(-c2nc(-c3ccccc3)nc(-c3ccccc3)n2)ccc1-n1c2ccccc2c2c3c(ccc21)C1(c2ccccc2-c2ccccc21)c1ccccc1-3` the fluorescence lifetime (in O=P(c1ccccc1)(c1ccccc1)c1ccccc1Oc1ccccc1P(=O)(c1ccccc1)c1ccccc1) was 8.3 ns.
In the case of `CCN(CC)/C(C)=N\c1ccc2c3c(cccc13)C(=O)c1ccccc1-2`, the fluorescence lifetime (in ClC(Cl)Cl) is reported as 8.07 ns.
With `N#Cc1ccc(/C2=C3N=C(C(c4ccccc4)=C/3c3ccccc3)/C(c3ccc(C#N)cc3)=c3\[nH]/c(c(-c4ccccc4)c3-c3ccccc3)=C(/c3ccc(C#N)cc3)C3=N/C(=C(/c4ccc(C#N)cc4)c4[nH]c2c(-c2ccccc2)c4-c2ccccc2)C(c2ccccc2)=C3c2ccccc2)cc1` the fluorescence lifetime (in ClCCl) was 0.416 ns.
For `CC(C)c1cc(C(C)C)c(B2c3ccccc3Oc3cc(N4c5ccccc5C5(c6ccccc6-c6ccccc65)c5ccccc54)ccc32)c(C(C)C)c1`, the fluorescence lifetime (in Cc1ccccc1) was 28 ns.
`O=S1(=O)c2ccc(-c3c4ccccc4cc4ccccc34)cc2-c2cc(-c3c4ccccc4cc4ccccc34)ccc21` showed a fluorescence lifetime (in C1CCCCC1) of 3.2 ns, a fluorescence lifetime (in CC#N) of 4.3 ns and a fluorescence lifetime (in ClCCl) of 3.7 ns.
Compound `c1ccc(-c2nc(-c3nc(-c4ccccc4)c(-c4ccccc4)o3)oc2-c2ccccc2)cc1` has a fluorescence lifetime (in C1COCCO1) of 1.22 ns.
`COc1ccc(C#Cc2ccc(C#N)cc2)cc1OC` gave a fluorescence lifetime (in C1COCCO1) of 1.09 ns, a fluorescence lifetime (in CC#N) of 2.03 ns and a fluorescence lifetime (in CCCCCC) of 0.37 ns. For the same compound, the fluorescence lifetime (in CCCCCCC) was 0.38 ns, the fluorescence lifetime (in CCCO) was 0.95 ns and the fluorescence lifetime (in CCOC(C)=O) was 1 ns. It also gave a fluorescence lifetime (in CS(C)=O) of 2.51 ns, a fluorescence lifetime (in ClC(Cl)Cl) of 0.89 ns and a fluorescence lifetime (in ClCCl) of 1.25 ns.
Compound `COc1ccc(C#CC2=C3CCc4ccccc4C3=[O+][B-](F)(F)O2)cc1` has a fluorescence lifetime (in ClCCl) of 1.49 ns.
Work on `CC\C=C/C=C/C=C/C=C\CCCCCCCC(=O)O` yielded a fluorescence lifetime (in C1COCCO1) of 3.2 ns, a fluorescence lifetime (in CCCCCC) of 4.5 ns and a fluorescence lifetime (in CCCCCCCCCC) of 5.2 ns. The fluorescence lifetime (in CCCCO) was 2.5 ns, the fluorescence lifetime (in CCOCC) was 5.1 ns and the fluorescence lifetime (in CO) was 1.3 ns. For the same compound, the fluorescence lifetime (in ClC(Cl)Cl) was 1.5 ns.
`CC(C)c1cc(C(C)C)c(B2c3cc(-n4c5ccccc5c5ccccc54)ccc3N(c3ccccc3)c3ccc(-n4c5ccccc5c5ccccc54)cc32)c(C(C)C)c1` showed a fluorescence lifetime (in c1cc(-c2cccc(-n3c4ccccc4c4ccccc43)c2)cc(-n2c3ccccc3c3ccccc32)c1) of 15 ns.
For `N#Cc1ccc2nc3[nH]c(=O)[nH]c(=O)c3nc2c1`, the fluorescence lifetime (in ClCCCl) was 0.18 ns.
`CCCCCCCCN1C(=O)c2ccc3c4c(-c5ccc(-n6c7ccccc7c7ccccc76)cc5)cc5c6c(cc(-c7ccc(-n8c9ccccc9c9ccccc98)cc7)c(c7ccc(c2c37)C1=O)c64)C(=O)N(CCCCCCCC)C5=O` gave a fluorescence lifetime (in ClC(Cl)Cl) of 3.3 ns.
With `O=C(O)COc1ccc2[nH]c3c(c2c1)CCCC3=O` the fluorescence lifetime (in C1CCOC1) was 0.319 ns, the fluorescence lifetime (in C1COCCO1) was 0.537 ns and the fluorescence lifetime (in CC#N) was 0.969 ns. The fluorescence lifetime (in CCCCCCCCCCCCO) was 1.16 ns, the fluorescence lifetime (in CCCCCCCCCCO) was 1.14 ns and the fluorescence lifetime (in CCCCCCCCO) was 1.19 ns. For the same compound, the fluorescence lifetime (in CCCCCCO) was 1.21 ns, the fluorescence lifetime (in CCCCO) was 1.11 ns and the fluorescence lifetime (in CCO) was 1.52 ns. It also gave a fluorescence lifetime (in CCOC(C)=O) of 0.464 ns, a fluorescence lifetime (in CN(C)C=O) of 1.91 ns and a fluorescence lifetime (in CO) of 1.72 ns. The fluorescence lifetime (in CS(C)=O) was 2.34 ns, the fluorescence lifetime (in Cc1ccccc1) was 0.585 ns and the fluorescence lifetime (in O) was 1.77 ns. The fluorescence lifetime (in c1ccccc1) was 0.632 ns.
